# Test results reported in US10765114B2, “4-amino-6-(pyridyl and 2-substitutedphenyl)-picolinates and 6-amino-2-(pyridyl and 2-substitutedphenyl)-pyrimidine-4-carboxylates and their use as herbicides” (Dow AgroSciences LLC, priority 2013, dated 2020).
# How the values were obtained:
# Assay in all cases: Post-Emergent Test III (Wheat and Barley)
# [1] = tested on: HORSS; format: in vivo; conditions: crop; for Visual Growth Reduction (%) 21 Days After Application, HORSS: HORSS barley (Hordeum vulgare), post-emergent
# Procedure, shortened: (§1)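 Seedlings are raised in a greenhouse at about 18/17 °C with a 14 h photoperiod until the second or third true leaf. They are then sprayed overhead at 187 L/ha over a range of rates down to 1/16× the highest. After 21 days, injury is scored visually, 0–100%.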
# [2] = tested on: TRZSS; format: in vivo; conditions: crop; for Visual Growth Reduction (%) 21 Days After Application, TRZSS: TRZSS wheat (Triticum aestivum), post-emergent
# Procedure, shortened: as §1
# [3] = tested on: LAMPU (purple deadnettle); format: in vivo, Lamium purpureum; conditions: for Visual Growth Reduction (%) 21 Days After Application, LAMPU: LAMPU purple deadnettle (Lamium purpureum), post-emergent
# Procedure: (§2) Seeds of the desired test plant species were planted in Sun Gro MetroMix® 306 planting mixture, which typically has a pH of 6.0 to 6.8 and an organic matter content of about 30 percent, in plastic pots with a surface area of 103.2 square centimeters (cm^2). When required to ensure good germination and healthy plants, a fungicide treatment and/or other chemical or physical treatment was applied. The plants were grown for 7-36 days in a greenhouse with an approximate 14 h photoperiod which was maintained at about 18° C. during the day and 17° C. during the night. Nutrients and water were added on a regular basis and supplemental lighting was provided with overhead metal halide 1000-Watt lamps as necessary. The plants were employed for testing when they reached the second or third true leaf stage.
# (§3) A weighed amount, determined by the highest rate to be tested, of each test compound was placed in a 25 mL glass vial and was dissolved in 4 mL of a 97:3 v/v mixture of acetone and DMSO to obtain concentrated stock solutions. […] The concentrated stock solutions obtained were diluted with 20 mL of an aqueous mixture containing acetone, water, isopropyl alcohol, DMSO, Agri-Dex crop oil concentrate, and X-77 surfactant in a 48:39:10:1.5:1.5:0.02 v/v ratio to obtain spray solutions containing the highest application rates. Additional application rates were obtained by serial dilution of 12 mL of the high rate solution into a solution containing 2 mL of 97:3 v/v mixture of acetone and DMSO and 10 mL of an aqueous mixture containing acetone, water, isopropyl alcohol, DMSO, Agri-Dex crop oil concentrate, and X-77 surfactant in a 48:39:10:1.5:1.5:0.02 v/v ratio to obtain ½×, ¼×, ⅛× and 1/16× rates of the high rate. Compound requirements are based upon a 12 mL application volume at a rate of 187 liters per hectare (L/ha). Formulated compounds were applied to the plant material with an overhead Mandel track sprayer equipped with 8002E nozzles calibrated to deliver 187 L/ha over an application area of 0.503 square meters at a spray height of 18 inches (43 cm) above the average plant canopy height. Control plants were sprayed in the same manner with the solvent blank.
# (§4) The treated plants and control plants were placed in a greenhouse as described above and watered by subirrigation to prevent wash-off of the test compounds. After 21 dAYS, the condition of the test plants as compared with that of the untreated plants was determined visually and scored on a scale of 0 to 100 percent where 0 corresponds to no injury and 100 corresponds to complete kill and presented as indicated in Table A.
# (§5) By applying the well-accepted probit analysis as described by J. Berkson in Journal of the American Statistical Society, 48, 565 (1953) and by D. Finney in “Probit Analysis” Cambridge University Press (1952), herbicidal injury of a specific compound at various rates can be used to calculate GR10, GR20, GR50, GR80 and GR90 values, which are defined as growth reduction factors that correspond to the effective dose of herbicide required to provide plant growth reduction (GR) of 10 percent, 20 percent, 50 percent, 80 percent and 90 percent, respectively. Probit analysis was applied to data collected from multiple dose rates of individual compounds utilizing the procedures explained in the following examples. The analysis of those dose rates is captured in the following tables.
# [4] = tested on: PAPRH (common poppy); format: in vivo, Papaver rhoeas; conditions: for Visual Growth Reduction (%) 21 Days After Application, PAPRH: PAPRH common poppy (Papaver rhoeas), post-emergent
# Procedure: as §2, §3, §4, §5
# [5] = tested on: VERPE (Persian speedwell); format: in vivo, Veronica persica; conditions: for Visual Growth Reduction (%) 21 Days After Application, VERPE: VERPE bird's-eye speedwell (Veronica persica), post-emergent
# Procedure: as §2, §3, §4, §5
# [6] = tested on: SASKR (Russian thistle); format: in vivo, Salsola tragus; conditions: for Visual Growth Reduction (%) 21 Days After Application, SASKR: SASKR Russian thistle (Salsola iberica), post-emergent
# Procedure: as §2, §3, §4, §5
# [7] = tested on: KCHSC (kochia); format: in vivo, Kochia scoparia
# Procedure, shortened: as §1
# [8] = tested on: POLCO (wild buckwheat); format: in vivo, Polygonum convolvulus; conditions: for Visual Growth Reduction (%) 21 Days After Application, POLCO: POLCO wild buckwheat (Polygonum convolvulus), post-emergent
# Procedure: as §2, §3, §4, §5
compound,measurement,setting,value
Cc1c(-c2cc(N)c(Cl)c(C(=O)O)n2)ccc(Cl)c1Cl [Compound 28],"Visual Growth Reduction (%) 21 Days After Application, HORSS",[1]; 17.5 g ai/ha,G (0-29)
same,"Visual Growth Reduction (%) 21 Days After Application, HORSS",[1]; 35 g ai/ha,F (30-44)
same,"Visual Growth Reduction (%) 21 Days After Application, HORSS",[1]; 70 g ai/ha,F (30-44)
same,"GR10, HORSS","[1]; HORSS barley, growth reduction of 10%, probit analysis, 21 days",3 g ai/ha
same,"GR20, HORSS","[1]; HORSS barley, growth reduction of 20%, probit analysis, 21 days",13 g ai/ha
same,"Visual Growth Reduction (%) 21 Days After Application, TRZSS",[2]; 17.5 g ai/ha,G (0-29)
same,"Visual Growth Reduction (%) 21 Days After Application, TRZSS",[2]; 35 g ai/ha,F (30-44)
same,"Visual Growth Reduction (%) 21 Days After Application, TRZSS",[2]; 70 g ai/ha,E (45-59)
same,"GR10, TRZSS","[2]; TRZSS wheat, growth reduction of 10%, probit analysis, 21 days",16 g ai/ha
same,"GR20, TRZSS","[2]; TRZSS wheat, growth reduction of 20%, probit analysis, 21 days",25 g ai/ha
same,"Visual Growth Reduction (%) 21 Days After Application, LAMPU",[3]; 17.5 g ai/ha,A (95-100)
same,"Visual Growth Reduction (%) 21 Days After Application, LAMPU",[3]; 35 g ai/ha,A (95-100)
same,"Visual Growth Reduction (%) 21 Days After Application, LAMPU",[3]; 70 g ai/ha,A (95-100)
same,"GR50, LAMPU","[3]; LAMPU, growth reduction of 50%, probit analysis, 21 days",1 g ai/ha
same,"GR80, LAMPU","[3]; LAMPU, growth reduction of 80%, probit analysis, 21 days",1 g ai/ha
same,"GR90, LAMPU","[3]; LAMPU, growth reduction of 90%, probit analysis, 21 days",1 g ai/ha
same,"Visual Growth Reduction (%) 21 Days After Application, PAPRH",[4]; 17.5 g ai/ha,G (0-29)
same,"Visual Growth Reduction (%) 21 Days After Application, PAPRH",[4]; 35 g ai/ha,G (0-29)
same,"Visual Growth Reduction (%) 21 Days After Application, PAPRH",[4]; 70 g ai/ha,G (0-29)
same,"GR50, PAPRH","[4]; PAPRH, growth reduction of 50%, probit analysis, 21 days",>140 g ai/ha
same,"GR80, PAPRH","[4]; PAPRH, growth reduction of 80%, probit analysis, 21 days",>140 g ai/ha
same,"GR90, PAPRH","[4]; PAPRH, growth reduction of 90%, probit analysis, 21 days",>140 g ai/ha
same,"Visual Growth Reduction (%) 21 Days After Application, VERPE",[5]; 17.5 g ai/ha,G (0-29)
same,"Visual Growth Reduction (%) 21 Days After Application, VERPE",[5]; 35 g ai/ha,F (30-44)
same,"Visual Growth Reduction (%) 21 Days After Application, VERPE",[5]; 70 g ai/ha,E (45-59)
same,"GR50, VERPE","[5]; VERPE, growth reduction of 50%, probit analysis, 21 days",63 g ai/ha
same,"GR80, VERPE","[5]; VERPE, growth reduction of 80%, probit analysis, 21 days",111 g ai/ha
same,"GR90, VERPE","[5]; VERPE, growth reduction of 90%, probit analysis, 21 days",>140 g ai/ha
same,"Visual Growth Reduction (%) 21 Days After Application, SASKR",[6]; 17.5 g ai/ha,C (75-84)
same,"Visual Growth Reduction (%) 21 Days After Application, SASKR",[6]; 35 g ai/ha,B (85-94)
same,"Visual Growth Reduction (%) 21 Days After Application, SASKR",[6]; 70 g ai/ha,A (95-100)
same,"GR50, SASKR","[6]; SASKR, growth reduction of 50%, probit analysis, 21 days",2 g ai/ha
same,"GR80, SASKR","[6]; SASKR, growth reduction of 80%, probit analysis, 21 days",17 g ai/ha
same,"GR90, SASKR","[6]; SASKR, growth reduction of 90%, probit analysis, 21 days",47 g ai/ha
same,pest or weed control at 17.5 g/ha,"[7]; Bassia scoparia, post-emergence, 504 h, KCHSC kochia (Kochia scoparia), 17.5 g ai/ha, post-emergent, read-out: Visual Growth Reduction (%) 21 Days After Application, KCHSC",75 to 84%
same,pest or weed control at 35 g/ha,"[7]; Bassia scoparia, post-emergence, 504 h, KCHSC kochia (Kochia scoparia), 35 g ai/ha, post-emergent, read-out: Visual Growth Reduction (%) 21 Days After Application, KCHSC",75 to 84%
same,pest or weed control at 70 g/ha,"[7]; Bassia scoparia, post-emergence, 504 h, KCHSC kochia (Kochia scoparia), 70 g ai/ha, post-emergent, read-out: Visual Growth Reduction (%) 21 Days After Application, KCHSC",95 to 100%
same,"GR50, KCHSC","[7]; KCHSC, growth reduction of 50%, probit analysis, 21 days",3 g ai/ha
same,"GR80, KCHSC","[7]; KCHSC, growth reduction of 80%, probit analysis, 21 days",21 g ai/ha
same,"GR90, KCHSC","[7]; KCHSC, growth reduction of 90%, probit analysis, 21 days",54 g ai/ha
same,"Visual Growth Reduction (%) 21 Days After Application, POLCO",[8]; 17.5 g ai/ha,A (95-100)
same,"Visual Growth Reduction (%) 21 Days After Application, POLCO",[8]; 35 g ai/ha,A (95-100)
same,"Visual Growth Reduction (%) 21 Days After Application, POLCO",[8]; 70 g ai/ha,A (95-100)
same,"GR50, POLCO","[8]; POLCO, growth reduction of 50%, probit analysis, 21 days",1 g ai/ha
same,"GR80, POLCO","[8]; POLCO, growth reduction of 80%, probit analysis, 21 days",1 g ai/ha
same,"GR90, POLCO","[8]; POLCO, growth reduction of 90%, probit analysis, 21 days",4 g ai/ha
